Data on 1 compound can be found in patent US4098823A, “Monospiroalkyl derivatives of prostaglandins” (Miles Laboratories, Inc., priority 1977, dated 1978).

SMILES strings stand for the structures.

Common to all, as to format: cell-based
For assay [1], the system named is Human Platelet Aggregation. As to the kind of experiment: Inhibition of Human Platelet Aggregation. Particulars: in vitro. As for the experimental part: The ability of test compounds to inhibit platelet aggregation was determined by a modification of the turbidometric technique of Born (Nature, 194:927 [1962]). Blood was collected from human volunteers who had not ingested aspirin or aspirin-containing products within the preceding two weeks in heparinized containers and was allowed to settle for one (1) hour. The platelet rich plasma (prp) supernates were collected and cooled. Siliconized glassware was used throughout.
In a representative assay 1.9 ml of PRP and 0.2 ml of test compound at the appropriate concentrations (0.001 to 100 mcgm), or 0.2 ml of distilled water (control procedure) were placed in sample cuvettes. The cuvettes were placed in a 37° C incubation block for 15 minutes, and then in a spectrophotometer linked to a strip chart recorder. After 30-60 seconds, 0.2 ml of a solution, prepared by diluting a calf-skin collagen solution 1:9 with Tyrodes' Solution, was added to each cuvette. Platelet aggregation was evidenced by a decrease in optical density.
An ED50 value was then determined graphically.

A further assay concerns rat stomach fundus. As to the kind of experiment: Cascade Assay, stomach (smooth muscle stimulant effect). Particulars: superfused, 50% of maximum (PGE1). The procedure, abridged: (§1)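 Rabbit aortic strip (4 g tension), rat stomach fundus, rat colon and chick rectum (1 g) in cascade, superfused at 10 ml/min with 37° C Krebs containing cholinergic, adrenergic, serotonin and histamine blockers. Doses of 0.001–100,000 ng dripped on at 10–20 min intervals; maximal tension rise gave graphical ED50 per tissue.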

The next assay has as its system chick rectum. As to the kind of experiment: Cascade Assay, rectum (smooth muscle stimulant effect). Particulars: superfused, 50% of maximum (PGE1). The procedure, abridged:
as §1

The next assay has as its system Rat Uterus. Briefly: Effects on the Rat Uterus in Vitro. The following applies: Rattus norvegicus; in vitro, 29° C; response 50% that of carbachol; read-out: Test F Rat Uterus, Activity Value (ED50). A digest of the protocol: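 Uterine segments came from rats (140–160 g) given 1 mg/kg diethylstilbestrol s.c. 18 h earlier. Tissue was held isometrically at 1 g tension in de Jalon solution at 29 °C, gassed with 95% O2/5% CO2. Compound was tested at 0.001–10 mcg/ml in log steps, every 10 min with washes, and ED50 was derived graphically as 50% of the second carbachol (1 mcg/ml) response.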

Take `COC(=O)CCCCCC[C@H]1C(=O)C[C@@H](O)[C@@H]1/C=C/[C@H](O)C1CC2(CCC2)C1` [TR-4120, Methyl 7-{3R-hydroxy-5-oxo-2R-[3R-hydroxy-3-(spiro[3.3]hept-2-yl)-1E-propenyl]cyclopent-1R-yl}heptanoate]: in assay [1], the “inhibition of aggregation of human platelets, in words” value was “inhibit aggregation of platelets”. The “Test E Cascade Assay, Stomach, Activity Value (ED50)” value with rat stomach fundus is recorded as 0 (>10000). In addition, in the assay with chick rectum, the “Test E Cascade Assay, Rectum, Activity Value (ED50)” value is 1 (1001 - 10000). Further, in the assay with Rat Uterus, the EC50 was greater than 10 µg/mL.
